Data published in ChEMBL document CHEMBL1201862, “PubChem BioAssay data set” (2004).
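Test compounds were applied to cells in 96-well plates for 48 hours at 5 doses. The concentration for 50% growth inhibition is given as GI50.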 Calls of active or inactive are those of the source. No stated cut-off is given here; in the data, active = GI50 up to about 1.1 µM and inactive = higher.

Assays:
Experiment in all cases: DTP human tumour cell line panel, 48 h
T47D = system: T47D
A498 = system: A498
HCT-116 = system: HCT-116
CAKI-1 = system: CAKI-1
KM12 = system: KM12
SN12C = system: SN12C
SK-OV-3 = system: SK-OV-3
HOP-92 = system: HOP-92
SW-620 = system: SW-620
NCI-H23 = system: NCI-H23
OVCAR-5 = system: OVCAR-5
MDA-MB-231 = system: MDA-MB-231
A549 = system: A549
SK-MEL-28 = system: SK-MEL-28
MOLT-4 = system: MOLT-4
MDA-N = system: MDA-N
786-0 = system: 786-0
SNB-75 = system: SNB-75
CCRF-CEM = system: CCRF-CEM
SR = system: SR
EKVX = system: EKVX
ACHN = system: ACHN
NCI-H522 = system: NCI-H522
PC-3 = system: PC-3
BT-549 = system: BT-549
Malme-3M = system: Malme-3M
DU-145 = system: DU-145
OVCAR-4 = system: OVCAR-4
NCI/ADR-RES = system: NCI/ADR-RES
NCI-H226 = system: NCI-H226
HCT-15 = system: HCT-15
Hs-578T = system: Hs-578T
SNB-19 = system: SNB-19
UACC-62 = system: UACC-62
MCF7 = system: MCF7
TK-10 = system: TK-10
HCC 2998 = system: HCC 2998
OVCAR-8 = system: OVCAR-8
SK-MEL-2 = system: SK-MEL-2
HOP-62 = system: HOP-62
K562 = system: K562
SF-295 = system: SF-295
SF-539 = system: SF-539
U-251 = system: U-251
HT-29 = system: HT-29
SF-268 = system: SF-268
IGROV-1 = system: IGROV-1
SK-MEL-5 = system: SK-MEL-5
LOX IMVI = system: LOX IMVI
M14 = system: M14
MDA-MB-435 = system: MDA-MB-435
UACC-257 = system: UACC-257
COLO 205 = system: COLO 205
UO-31 = system: UO-31
NCI-H460 = system: NCI-H460
OVCAR-3 = system: OVCAR-3
RPMI-8226 = system: RPMI-8226
RXF 393 = system: RXF 393
HL-60 = system: HL-60

In the case of `NCCSCCC(=O)O`, the GI50 (T47D) is reported as > 33.5 µM (inactive), the GI50 (A498) is reported as > 68.7 µM (inactive) and the GI50 (HCT-116) is reported as > 56.6 µM (inactive). For the same compound, the GI50 (CAKI-1) was > 59.2 µM (inactive), the GI50 (KM12) was > 82.8 µM (inactive) and the GI50 (SN12C) was > 43.1 µM (inactive). The GI50 (SK-OV-3) was > 65.8 µM (inactive), the GI50 (HOP-92) was > 100 µM (inactive) and the GI50 (SW-620) was 19.7 µM (inactive). For the same compound, the GI50 (NCI-H23) was > 25.8 µM (inactive), the GI50 (OVCAR-5) was > 100 µM (inactive) and the GI50 (MDA-MB-231) was > 100 µM (inactive). The GI50 (A549) was > 69.2 µM (inactive), the GI50 (SK-MEL-28) was 37.9 µM (inactive) and the GI50 (MOLT-4) was 29.7 µM (inactive). For the same compound, the GI50 (MDA-N) was > 81.7 µM (inactive), the GI50 (786-0) was > 38.1 µM (inactive) and the GI50 (SNB-75) was > 40.3 µM (inactive). For the same compound, the GI50 (CCRF-CEM) was 23 µM (inactive), the GI50 (SR) was 14.4 µM (inactive) and the GI50 (EKVX) was > 100 µM (inactive). For the same compound, the GI50 (ACHN) was > 25.6 µM (inactive), the GI50 (NCI-H522) was > 66.1 µM (inactive) and the GI50 (PC-3) was > 82 µM (inactive). For the same compound, the GI50 (BT-549) was > 100 µM (inactive), the GI50 (Malme-3M) was > 100 µM (inactive) and the GI50 (DU-145) was > 52 µM (inactive). The GI50 (OVCAR-4) was > 100 µM (inactive), the GI50 (NCI/ADR-RES) was > 69.8 µM (inactive) and the GI50 (NCI-H226) was > 100 µM (inactive). The GI50 (HCT-15) was > 59 µM, the GI50 (Hs-578T) was > 100 µM (inactive) and the GI50 (SNB-19) was > 94.8 µM (inactive). The GI50 (UACC-62) was > 45.4 µM (inactive), the GI50 (MCF7) was > 57.1 µM (inactive) and the GI50 (TK-10) was > 67.1 µM (inactive). The GI50 (HCC 2998) was 28.6 µM (inactive), the GI50 (OVCAR-8) was > 84.3 µM (inactive) and the GI50 (SK-MEL-2) was > 83.8 µM (inactive). For the same compound, the GI50 (HOP-62) was > 68.5 µM (inactive), the GI50 (K562) was 31.8 µM (inactive) and the GI50 (SF-295) was > 48.4 µM (inactive). The GI50 (SF-539) was 21.9 µM (inactive), the GI50 (U-251) was > 44 µM (inactive) and the GI50 (HT-29) was > 84.1 µM (inactive). The GI50 (SF-268) was > 77.3 µM (inactive), the GI50 (IGROV-1) was > 100 µM (inactive) and the GI50 (SK-MEL-5) was 39.9 µM (inactive). The GI50 (LOX IMVI) was 39 µM (inactive), the GI50 (M14) was > 74.8 µM (inactive) and the GI50 (MDA-MB-435) was > 100 µM (inactive). The GI50 (UACC-257) was > 59 µM (inactive), the GI50 (COLO 205) was 30.4 µM (inactive) and the GI50 (UO-31) was > 100 µM (inactive). For the same compound, the GI50 (NCI-H460) was > 12.4 µM (inactive), the GI50 (OVCAR-3) was > 100 µM (inactive) and the GI50 (RPMI-8226) was 25.8 µM (inactive). For the same compound, the GI50 (RXF 393) was > 66.7 µM (inactive).

For `O=c1c2c3c(sc2nc(S)n1-c1ccccc1)CCCc1ccc([N+](=O)[O-])cc1-3`, the GI50 (T47D) was 17.5 µM (inactive), the GI50 (A498) was 41 µM (inactive) and the GI50 (HCT-116) was 39.1 µM (inactive). The GI50 (CAKI-1) was > 100 µM (inactive), the GI50 (KM12) was > 100 µM (inactive) and the GI50 (SN12C) was 37.7 µM (inactive). The GI50 (SK-OV-3) was > 100 µM (inactive), the GI50 (HOP-92) was 20.6 µM (inactive) and the GI50 (SW-620) was 10.4 µM (inactive). For the same compound, the GI50 (NCI-H23) was 30.5 µM (inactive), the GI50 (OVCAR-5) was > 100 µM (inactive) and the GI50 (MDA-MB-231) was > 100 µM (inactive). For the same compound, the GI50 (A549) was 42.9 µM (inactive), the GI50 (SK-MEL-28) was > 100 µM (inactive) and the GI50 (MOLT-4) was 21.3 µM (inactive). The GI50 (MDA-N) was 86.5 µM (inactive), the GI50 (786-0) was 54 µM (inactive) and the GI50 (SR) was 27.4 µM (inactive). The GI50 (EKVX) was > 100 µM (inactive), the GI50 (ACHN) was 81.3 µM (inactive) and the GI50 (NCI-H522) was 13.9 µM (inactive). For the same compound, the GI50 (PC-3) was 59.7 µM (inactive), the GI50 (BT-549) was 24.8 µM (inactive) and the GI50 (Malme-3M) was 35.7 µM (inactive). The GI50 (HL-60) was 17.6 µM (inactive), the GI50 (DU-145) was 48.9 µM (inactive) and the GI50 (OVCAR-4) was 38.9 µM (inactive). For the same compound, the GI50 (NCI/ADR-RES) was 25.8 µM (inactive), the GI50 (NCI-H226) was > 100 µM (inactive) and the GI50 (HCT-15) was 22 µM. For the same compound, the GI50 (Hs-578T) was 87.3 µM (inactive), the GI50 (SNB-19) was 40.8 µM (inactive) and the GI50 (UACC-62) was 26.7 µM (inactive). For the same compound, the GI50 (MCF7) was 36.6 µM (inactive), the GI50 (TK-10) was > 100 µM (inactive) and the GI50 (HCC 2998) was 24.6 µM (inactive). For the same compound, the GI50 (OVCAR-8) was 28.8 µM (inactive), the GI50 (SK-MEL-2) was > 100 µM (inactive) and the GI50 (HOP-62) was 35.1 µM (inactive). The GI50 (K562) was 11.7 µM (inactive), the GI50 (SF-295) was 30.4 µM (inactive) and the GI50 (U-251) was 39.8 µM (inactive). For the same compound, the GI50 (HT-29) was 25.3 µM (inactive), the GI50 (SF-268) was 36.1 µM (inactive) and the GI50 (IGROV-1) was 14.2 µM (inactive). The GI50 (SK-MEL-5) was 25.7 µM (inactive), the GI50 (LOX IMVI) was 19.3 µM (inactive) and the GI50 (M14) was > 100 µM (inactive). For the same compound, the GI50 (MDA-MB-435) was 49.5 µM (inactive), the GI50 (UACC-257) was 29.2 µM (inactive) and the GI50 (COLO 205) was > 100 µM (inactive). The GI50 (UO-31) was 26.9 µM (inactive), the GI50 (NCI-H460) was 36 µM (inactive) and the GI50 (OVCAR-3) was 32.1 µM (inactive). For the same compound, the GI50 (RPMI-8226) was 22.6 µM (inactive) and the GI50 (RXF 393) was 16.9 µM (inactive).
